Laboratory results published in patent US20250161428A1, “PREVENTING/TREATING PSEUDOMONAS AERUGINOSA INFECTION” (priority 2022, published 2025).
Values joined by “and” are separate entries in the source; they are usually repeats but may differ in a detail not shown here. Equal values may be shown once. Read-outs that look alike come from different tables or passages of the source.

Tests used:
mAb 1B1 = assay: mAb inhibition ELISA with synthetic oligosaccharides, mAb 1B1; type: binding, mouse; conditions: P. aeruginosa PAO1 BAA-47 LPS or whole cell coated plates, 10 μg/ml mAb
Excerpt: FIGS. 15A, 15B, and 15C show inhibition ELISAs of mAbs 1B1 (FIG. 15A), 3C4 (FIG. 15B) and 3B8 (FIG. 15C) with LPS (left hand panels; square markers—P. aeruginosa PAO1 BAA-47, inverted triangle markers—P. aeruginosa (wzy::Gm)(Δpa5458), diamond markers—N. meningitidis galE/lpt3 and circular markers—PBS control) or synthetic oligosaccharides representing the terminal methylated rhamnan (right hand panels; solid circle markers—pentasaccharide, open square markers—tetrasaccharide, open circle markers—trisaccharide, inverted triangle markers—disaccharide, diamond markers—disaccharide with linker, triangle markers—L-monomer, solid square markers—D-monomer) against P. aeruginosa PAO1 BAA-47 LPS. Serial dilution, as shown on the x-axis, of either LPS or synthetic oligosaccharide was combined at an equal volume with 10 μg/ml mAb. After 1 h incubation, 100 μl of this inhibition mixture was added to PAO1 BAA-47 LPS coated plates. A secondary mAb specific for the primary mAb was added and absorbance was measured after a colour reagent was added. The absorbance obtained when the mAb is no longer inhibited by additional LPS or synthetic oligosaccharide is equal to inhibition by PBS.
FIGS. 15D, 15E, and 15F show inhibition ELISAs of mAbs 1B1 (FIG. 15D), 3C4 (FIG. 15E) and 3B8 (FIG. 15F) with LPS (left hand panels; square markers—P. aeruginosa PAO1 BAA-47, inverted triangle markers—P. aeruginosa (wzy::Gm)(Δpa5458), diamond markers—N. meningitidis galE/lpt3 and circle markers—PBS control) or synthetic oligosaccharides representing the terminal methylated rhamnan (right hand panels; solid circle markers—pentasaccharide, open square markers—tetrasaccharide, open circle markers—trisaccharide, inverted triangle markers—disaccharide, diamond markers—disaccharide with linker, triangle markers—L-monomer, blue—D-monomer) against P. aeruginosa PAO1 BAA-47 whole cells. Serial dilution, as shown on the x-axis, of either LPS or synthetic oligosaccharide was combined at an equal volume with 10 μg/ml mAb. After 1 h incubation, 100 μl of this inhibition mixture was added to PAO1 BAA-47 whole cell coated plates. A secondary mAb specific for primary the mAb was added and absorbance measured after a colour reagent was added. Absorbance obtained when the mAb is no longer inhibited by additional LPS or synthetic oligosaccharide is equal to inhibition by PBS.
mAb inhibition ELISA: Wells of Nunc Maxisorp EIA plates were coated with either 1 μg of P. aeruginosa LPS in PBS overnight at 4° C. or P. aeruginosa killed whole cells in dH2O in a drying oven overnight, and then brought to RT before use. Plates were blocked with 1% BSA-PBS for 1 h at RT, and then wells were washed with PBS-T. During the blocking step, the inhibition was set-up. Either LPS or a synthetic oligosaccharide was added to a tube at either 1 mg/ml or 3 mg/ml and then a serial dilution with 1% BSA-PBS was performed, before an equal volume of mAb (1B1, 3B8 or 3C4) was added at a constant concentration of 10 μg/ml in 1% BSA-PBS, this mixture was incubated for 1 h at RT. Following washing of the EIA plate with PBS-T, 100 μl from the mixed tubes was added to the plate and allowed to incubate for 1 h at RT for LPS coated plates, or 3 h at RT for killed whole cell coated plates. Following washing with PBS-T, the appropriate AP-labeled goat anti-mouse Ig (Southern Biotech) specific for the mAb used, diluted 1:250 in 1% BSA-PBS, was added for 1 h at RT. The plates were then washed with PBS-T and developed with Phosphatase Substrate System (Kirkegaard and Perry Laboratories). After 60 min, absorbance was measured at 405 nm using a microtiter plate reader. […]

1B1 IgM = assay: SPR binding of synthetic oligosaccharides to 1B1 IgM surface; set-up: species or system mouse; conditions: for ka / kd / Obs Rmax (observed maximum binding response): two runs per oligosaccharide; for Obs Rmax (observed maximum binding response): high density 1B1 IgM surface, 25° C., HBS-EP
Protocol: Various concentration ranges of synthetic oligosaccharides (see Experimental) were flowed over IgM 1B1 and an irrelevant IgM, Fn 4F1. Mcat lgt2/4: control oligosaccharide.
Surface plasmon resonance (SPR): SPR binding assays were performed at 25° C. on a Biacore T200 instrument in HBS-EP running buffer (Cytiva Life Sciences, Mississauga, Canada), essentially as described previously. Briefly, approximately 13000 RUs of IgM (PA 1B1 and control Fn 4F1) were amine coupled to a CM7S sensor chip in 10 mM acetate buffer, pH 4.0 (Cytiva). Synthetic oligosaccharides were reconstituted in HBS-EP to 25 mM and a series of dilutions prepared for injection over IgM surfaces. The contact time was 60 s and the dissociation time 120 s (mono-, di-) or 180 s (tri-, tetra-, penta-). The following concentration ranges were injected: mono- (1 mM-62.5 μM), di- (200 μM-12.5 μM) and tri-, tetra- and penta- (10 μM-625 nM). Mcat lgt2/4 an oligosaccharide from Moraxella catarrhalis, served as a control and was injected at 10 μM. Surfaces were regenerated by extensive washing with HBS-EP. Reference flow cell subtracted sensorgrams were fit to a 1:1 binding model to determine binding kinetics and affinities, or affinities were determined by steady-state analysis.
Synthetic carbohydrates ranging from a monosaccharide to pentasaccharide were flowed over high density surfaces of 1B1 IgM and an irrelevant IgM, Fn 4F1.

[1] = tested on: killed whole cells of P. aeruginosa strains; assay: ELISA binding of mAbs to killed whole cells; conditions: summary statement, serotype strains and clinical isolates
Protocol: FIGS. 11A, 11B, and 11C show ELISA analysis of binding of 1B1 (FIG. 11A), 3B8 (FIG. 11B), and 3C4 (FIG. 11C) purified monoclonal antibodies (mAbs) (all at 100 μg/ml) to killed whole cells of P. aeruginosa strains NRCC #'s 6678, 6668-70, 6954-60 and negative control strains M. catarrhalis 6541 and N. meningitidis 6263 (see Table 1 for full details of strains).
ELISA: The binding of anti-P. aeruginosa A-band terminal epitope mAbs and polyclonal sera to BSA conjugates, purified LPS and to whole cells was evaluated by ELISA as described previously.

purified PAO1 LPS = assay: mAb competition ELISA; type: binding, P. aeruginosa; conditions: PAO1 LPS coated plates; 3C4 at 62.5 μg/ml
Protocol: (§1) The plate was washed and mAb 3C4 was added at a constant concentration (62.5 μg/ml). A secondary mAb specific for mAb 3C4 was added and absorbance was measured after a colour reagent was added (line with square markers). The absorbance obtained when 3C4 was added to the plate without 1B1 competition is shown by the line with a triangle marker.
as §1, with “to” for “to the”, “3B8” for “1B1”
mAb competition ELISA: Wells of Nunc Maxisorp EIA plates were coated with 1 μg of P. aeruginosa LPS in PBS overnight at 4° C. and then brought to RT before use. Plates were blocked with 1% BSA-PBS for 1 h at RT, and then wells were washed with PBS-T. One mAb (1B1 or 3B8) was titrated and added to the plate for 1 h at RT. Following washing with PBS-T, the second mAb (3C4) was added at a pre-determined concentration and allowed to incubate for 1 h at RT. Following washing with PBS-T, AP-labeled goat anti-mouse IgG2b (Southern Biotech) specific for mAb 3C4, diluted 1:250 in 1% BSA-PBS was added for 1 h at RT. The plates were then washed with PBS-T and developed with Phosphatase Substrate System (Kirkegaard and Perry Laboratories). After 60 min absorbance was measured at 405 nm using a microtiter plate reader.

[2] = 1:1 binding model, table: two runs, text: one value per oligosaccharide, read-out: KD
[3] = 1:1 binding model, listed as Tri-

Q: How did the “inhibition of binding of mAb 1B1 to its target LPS and killed whole cells” value (shortened to “inhibition of binding of mAb 1B1”) (mAb 1B1) turn out when `CO[C@@H]([C@H](O)[C@@H](C)O)[C@H](O)C=O` [D-monosaccharide, 3-O-Methyl-D-rhamnose] was run?
A: some evidence of inhibition

Q: `CO[C@@H]1[C@H](O)[C@@H](O[C@H]2[C@H](OC)[C@H](O)[C@@H](O[C@H]3[C@H](OC)[C@H](O)[C@@H](O[C@H]4[C@H](OC)[C@H](O)[C@@H](O[C@H]5[C@H](OC)[C@H](O)[C@@H](O)O[C@@H]5C)O[C@@H]4C)O[C@@H]3C)O[C@@H]2C)O[C@H](C)[C@H]1O` [pentasaccharide, 3-O-methyl-α-D-rhamnopyranoside-(1→4)-3-O-methyl-α-D-rhamnopyranoside-(1→4)-3-O-methyl-α-D-rhamnopyranoside-(1→4)-3-O-methyl-α-D-rhamnopyranoside-(1→4)-3-O-methyl-α-D-rhamnopyranose] was tested. Which Kd (1B1 IgM; 1:1 binding model, table: two runs, text: one value per oligosaccharide, listed as Penta-, read-out: KD) did it give?
A: 540 nM

Q: What about the Kd (1B1 IgM; [2]) of the same molecule?
A: 550 nM

Q: And the ka (1B1 IgM; 1:1 binding model)?
A: 3430 s⁻¹ and 5430 s⁻¹

Q: And the kd (1B1 IgM; 1:1 binding model)?
A: 0.00186 M⁻¹ s⁻¹ and 0.0019 M⁻¹ s⁻¹

Q: And the “Obs Rmax (observed maximum binding response)” value (“Obs Rmax” below) (1B1 IgM)?
A: 34

Q: And the “inhibition of binding of mAb 1B1” value (mAb 1B1)?
A: effectively equivalent in inhibiting

Q: With `CO[C@@H]1[C@@H](O)[C@H](C)OC(O)[C@@H]1O` (stereo partly drawn) [L-monosaccharide, 3-O-Methyl-L-rhamnopyranose] as the molecule, how does the “inhibition of binding of mAb 1B1” value (mAb 1B1) read?
A: completely ineffective in inhibition

Q: For `CO[C@@H]1[C@H](O)[C@@H](O[C@H]2[C@H](OC)[C@H](O)[C@@H](O[C@H]3[C@H](OC)[C@H](O)[C@@H](O)O[C@@H]3C)O[C@@H]2C)O[C@H](C)[C@H]1O` [trisaccharide, 3-O-methyl-α-D-rhamnopyranoside-(1→4)-3-O-methyl-α-D-rhamnopyranoside-(1→4)-3-O-methyl-α-D-rhamnopyranose], which Kd (1B1 IgM; 1:1 binding model, table: two runs, text: one value per oligosaccharide, listed as Tri-, read-out: KD) is on record?
A: 1370 nM and 1460 nM

Q: What about the Kd (1B1 IgM; [2]) of the same molecule?
A: 1420 nM

Q: And the ka (1B1 IgM; [3])?
A: 12800 s⁻¹ and 12300 s⁻¹

Q: And the kd (1B1 IgM; [3])?
A: 0.0176 M⁻¹ s⁻¹ and 0.0179 M⁻¹ s⁻¹

Q: What about the “Obs Rmax” value (1B1 IgM) of the same molecule?
A: 21

Q: What about the “inhibition of binding of mAb 1B1” value (mAb 1B1) of the same molecule?
A: effectively equivalent in inhibiting

Q: What about the “inhibition of binding of mAb 1B1” value (mAb 1B1; listed as 3-O-methyl rhamnan trisaccharide) of the same molecule?
A: effectively inhibited

Q: With `CO[C@@H]1[C@H](O)[C@@H](O[C@H]2[C@H](OC)[C@H](O)C(O)O[C@@H]2C)O[C@H](C)[C@H]1O` (stereo partly drawn) [disaccharide, 3-O-Methyl-α-D-rhamnopyranoside-(1→4)-3-O-methyl-D-rhamnopyranose] as the molecule, how does the “Obs Rmax” value (1B1 IgM; listed as Di-) read?
A: 14 and 15

Q: What about the Kd (1B1 IgM; steady-state analysis, listed as Di-, read-out: KD, steady state affinity) of the same molecule?
A: 85800 nM and 82500 nM

Q: And the Kd (1B1 IgM; steady-state analysis, read-out: KD, steady state affinity)?
A: 84000 nM

Q: And the “inhibition of binding of mAb 1B1” value (mAb 1B1)?
A: some evidence of inhibition

Q: For `CO[C@@H]1[C@H](O)[C@@H](O[C@H]2[C@H](OC)[C@H](O)[C@@H](O[C@H]3[C@H](OC)[C@H](O)[C@@H](O[C@H]4[C@H](OC)[C@H](O)[C@@H](O)O[C@@H]4C)O[C@@H]3C)O[C@@H]2C)O[C@H](C)[C@H]1O` [tetrasaccharide, 3-O-methyl-α-D-rhamnopyranoside-(1→4)-3-O-methyl-α-D-rhamnopyranoside-(1→4)-3-O-methyl-α-D-rhamnopyranoside-(1→4)-3-O-methyl-α-D-rhamnopyranose], which Kd (1B1 IgM; 1:1 binding model, table: two runs, text: one value per oligosaccharide, listed as Tetra-, read-out: KD) is on record?
A: 650 nM

Q: What about the Kd (1B1 IgM; [2]) of the same molecule?
A: 660 nM

Q: What about the ka (1B1 IgM; 1:1 binding model) of the same molecule?
A: 5690 s⁻¹ and 5260 s⁻¹

Q: And the kd (1B1 IgM; 1:1 binding model)?
A: 0.00372 M⁻¹ s⁻¹ and 0.00348 M⁻¹ s⁻¹

Q: And the “Obs Rmax” value (1B1 IgM)?
A: 28 and 29

Q: And the “inhibition of binding of mAb 1B1” value (mAb 1B1)?
A: effectively equivalent in inhibiting

B1: 3B8: mouse IgM monoclonal antibody to the A-PS terminus; VH SEQ ID NO: 13, VL SEQ ID NO: 17 (antibody, V domains shown)
VH: EIQLQQSGPELVKPGASVKVSCKASGYSFTDYNMYWVKQSHGKSLEWVGYIDPYNGGTTYNQKFKGKATLTVDKSSSTAFMHLNSLTSEDSAVYYCAKGGYRYDAWFAYWGQGTLVTVSA
VL: DAVMTQTPLSLPVSLGDHASISCRSSQSLENNNGNTYLNWYLQKPGQSPQLLIYRVSNRFSGVLDRFSGSGSGTDFTLKISRVEAEDLGVYFCLQVTHVPWTFGGGTKLEIK
Q: Which “range of P. aeruginosa strains recognised” value [1] does the source give for B1 here?
A: recognition restricted to the wt serotype 5 strains PAO1 BAA-47 and 5937

Q: What about the “epitope relation in competition ELISA with mAb 3C4” value (purified PAO1 LPS) of the same molecule?
A: recognised similar overlapping epitopes
